Here are results for seven compounds from patent US20080269161A1, “Compositions and Methods Relating to Mitochondrial Hyperpolarization in Neurological Disease” (priority 2005, published 2008).

“Also recorded” adds a separate entry of the source. Like-named read-outs stand apart in the source and are kept apart here.

In data set [1] the test system is mitochondrial membrane potential of rat cortical neurons. The format is cell-based. On the procedure:
Curve fits are non-formulaic software interpolations of the data points.
Changes in mitochondrial function that could be associated with the increased vesicular activity were evaluated. Mitochondria generate the energy for synaptic transmission in the form of ATP, and as a byproduct of this oxidative phosphorylation, they are also one of the primary producers of intracellular ROS. Two key mitochondrial parameters were examined in response to Tat and PAF: 1) mitochondrial membrane potential (ΔΨm) [as assessed by mitochondrial uptake of the lipophilic cationic dyes tetramethylrhodamine ethyl or methyl ester (TMRE or TMRM respectively)], and 2) ATP production (as measured by luciferase assay). The electronegative mitochondrial membrane potential provides the driving force for calcium buffering and ATP production by the mitochondria, and as such, ΔΨm is frequently used as an indicator of mitochondrial health and energetic capacity. Moreover, fluctuations in ΔΨm can trigger mitochondrial release of pro-apoptotic factors, an event most frequently associated with a loss of ΔΨm.
Monitoring alterations in ΔΨm with TMRM: In the relevant methods described herein, changes in mitochondrial membrane potential (ΔΨm) in response to Tat or PAF treatment is assessed by TMRM, which must equilibrate across the plasma membrane before entering the mitochondria; and in whole cell applications dye concentration in the mitochondria is dependent on both plasma membrane potential (ΔΨp) and AΨm. At sufficiently low dye concentrations (TMRM =1 nM, i.e. high cell/dye ratio) and normal membrane potentials, ≧95% of the dye is in the mitochondria, and ≦1% in the media, which results in an approximately 100× sensitivity of the dye to ΔΨm over ΔΨp, given equivalent changes in plasma or mitochondrial membrane potential [Rottenberg, H. and S. Wu, Biochim Biophys Acta, 1998. 1404(3): p. 393-40].
For these methods, primary rodent neurons are treated with reagent under normal culture conditions for the indicated time period, followed by removal of the media, 1×2 minute wash in pre-warmed 37° C. HBSS plus 10 mM glucose and 10 mM HEPES (HBSS+), then incubation in HBSS+ with 1 nM TMRE/M. Following equilibration of the dye for 20 minutes to ensure distribution across the mitochondrial membrane, the cells are imaged while remaining in the 1 nM TMRE/M solution, as is necessary for a continued dye equilibrium state. Random field images are taken using an Olympus IX-70 microscope and 40× objective (fluorescent excitation: 545; emission: 610) and Apogee KX32ME CCD camera, and the mean relative fluorescent unit (RFU) value of the neuronal soma and processes (excluding mitochondria deficient regions) is quantified using Scanalytics IPLab software.

For data set [2], the system named is CA1 pyramidal neurons in hippocampal slices. Details: species or system rodent. The method, then:
CA1 pyramidal neurons were exposed to 1 μM cPAF or vehicle for 30-60min and simultaneously imaged and recorded by whole-cell patch clamp before and after delivery of a high-frequency stimulus (HFS: three 1s, 100 Hz trains, every 20 s) applied to Schaffer collateral axons via a bipolar stimulating electrode planted in the stratum radiatum. (A) Dendrite beading in a cPAF-exposed cell 45min after HFS, with no disruption of dendrite or spine morphology in control cells. […] (C) Excitatory synaptic transmission between Shaffer collateral axons and CA1 pyramidal neurons is strongly potentiated following HFS in control slices. […] (EPSP traces at baseline and 40 min from representative control cell and cPAF-treated beaded cell are at right.) […]
Explant hippocampal slices are exposed to HIV-1 neurotoxins±agents that reverse mitochondrial hyperpolarization. Beading and LTP are then be measured:
Hippocampal slice preparation: Brains from anesthetized P14-28 rodents are rapidly removed and cooled in sucrose based artificial cerebrospinal fluid (ACSF) containing in mM: 110 sucrose, 60 NaCl, 3 KCl, 1.25 NaH2PO4, 28 NaHCO3, 10 D-glucose, 0.5 CaCl2, 7 MgSO4, 0.6 ascorbate. The brains are blocked and fixed to a specimen stage with cyanoacrylate. Coronal slices (250-400 μm in thickness) are cut with a vibroslicer (World Precision Instruments, Fla., USA) equipped with a Peltier cooling system. The middle four to six slices of each hippocampus (with the entorhinal cortex removed) are placed into a holding chamber prior to use.
Measuring dendritic beading and postsynaptic potentials in single CA1 cells in hippocampal slices: Dendritic arbors of individual CA1 pyramidal cells are imaged while simultaneously recording excitatory postsynaptic potentials in the same cell by patch clamp recordings in whole-cell configuration. Recording pipettes ([…] resistance) are pulled from 1.5 mm borosilicate glass using a horizontal Flaming/Brown micropipette puller (Sutter Instrument Co, Calif.), fire-polished, and filled with intracellular recording solution (in mM: KCl 20, potassium gluconate 130, EGTA 0.5, HEPES 10, MgSO4 2, ATP 2.5, GTP 0.5, pH 7.3). In order to visualize dendrites of the recorded cell, Alexa 568 hydrazide (30 μM) is included in the recording pipette and is injected by small negative current pulses for 15-20 min prior to recording in order to fill the dendritic arbor. Hippocampal slices are bathed in artificial CSF (containing, in mM: NaCl 125, KCl 2.5, NaH2PO4 1.25, NaHCO3 25, CaCl2 2, MgCl2 1, D-glucose 25, oxygenated and buffered with 5% CO2). Membrane potentials of CA1 pyramidal cells are recorded in current clamp mode, and postsynaptic potentials are evoked by test pulses of constant-current stimulation applied via a bipolar stimulating electrode placed 50-200 μm away in the stratum radiatum. Bicuculline (10 μM) is included in the bath to isolate excitatory postsynaptic potentials. After at least 10 min of consistent baseline recording, a high-frequency LTP induction stimulus (HFS, consisting of four 1 s, 100 Hz trains delivered every 15 s) is applied. EPSPs are recorded for 60 min following HFS. At the same time, dendrites are imaged at 40× magnification by fluorescence microscopy, using a shutter to limit fluorescent light exposure and prevent phototoxic injury to the slice. Serial images of dendrites are compared to detect development of focal swellings along dendritic shafts following HFS. Cells are scored as beaded if swellings develop along any of their dendrites.
Field potential recording and induction of LTP in hippocampal slices: Single-cell recordings are complemented by extracellular field potential recordings: while single cell recordings allow correlation of electrophysiologic data with dendritic beading in the same cell, extracellular recordings sample responses from populations of dendrites and are less invasive. […]

Data set [3] has as its system NO release by human primary monocytes. The experiment in a line: Tat-induced nitric oxide release by primary monocytes (Griess reaction). As to conditions: co-treatment with Tat, 8 h; R-PIA 1 μM. The data set is classed as cell-based. The method, then: Human primary monocytes were treated with Tat in the presence or absence of the indicated adenosine receptor agonists for 8 h, and nitric oxide levels in the culture medium of the cells were then quantitated using the Griess reaction (Active Motif). Data represent mean+SEM of three experiments.
(§1) The effect of adenosine receptor activation on Tat-induced upregulation of iNOS expression and NO release was then determined. […] In contrast, incubation of cells with 1 μM R-PIA (an adenosine A1 receptor agonist) had no effect on Tat-induced iNOS expression or NO release (FIG. 11), implicating the A2A and A3 receptor subtypes in this anti-inflammatory effect. ZM241385 (an A2AR antagonist) or MRS 1220 (an A3R antagonist) could prevent the anti-inflammatory effects of CGS21680 or IB-MECA, respectively.

Data set [4] has as its system iNOS expression in human primary monocytes. Nature of the data set: Tat-induced iNOS expression in primary monocytes. The data set is classed as cell-based. The settings on record: for prevention of the anti-inflammatory effects of CGS21680 or IB-MECA, respectively: Tat-treated monocytes, iNOS/NO. The method, then: as §1
For data set [5], the system named is cortical cultures. The experiment in a line: Tat-induced apoptotic cell death in cortical cultures.
Method: Quantifying Cell Death: Cell death is assessed by visualizing fragmented DNA per the TUNEL method as described previously as well [Perry, S. W., et al., J Neurosci Res, 2004. […] Briefly, after treatment in 24 well plates, cells are fixed with Histochoice MB Tissue Fixative (Amresco) then TUNEL-labeled with the ApopTag kit (Chemicon) according to kit instructions. Cells are visualized under Hoffman modulation contrast optics using a 40× objective, and images taken of ten random fields per well from 3 replicate wells per condition. Data is expressed as percent Apoptag-positive neurons [(# Apoptag positive neurons/)(Total neurons))33 100] (or Trypan blue positive neurons where applicable) per field, then field values averaged for a mean cell death value per well. Mean values from 3 or more (see “power” calculations below) wells are averaged for a final mean cell death value for each condition±SEM; the analyses is made without knowledge of the treatment group.
Data set [6] has as its system rat cerebellar granule neurons (CGNs). The experiment in a line: Tat-induced apoptosis of cerebellar granule neurons (TUNEL). The settings on record: Tat 500 nM, 48 h. The format is cell-based. On the procedure: CGNs were exposed to HIV-1 Tat (Tat, 500 nM), or vehicle alone (NT), in the presence or absence of the A2A antagonist, ZM241385. After 48 h, cultures were analyzed for the percentage of apoptotic cells using the TUNEL assay. Data represent mean±SEM for one experiment that was performed in triplicate; data are representative of two independent experiments.
CGNs were exposed to HIV-1 Tat (Tat, 500 nM), or vehicle alone (No Tat), in the presence or absence of the A2AR antagonists, ATL455 and ZM241385, or the A2AR agonists ATL313 and CGS21680. After 48 h, cultures were analyzed for the percentage of apoptotic cells using the TUNEL assay. Data represent mean±SEM for one experiment that was performed in triplicate; data are representative of two independent experiments.
(1) Primary rat cerebellar granule neurons (CGNs). CGNs represent a highly homogenous population of primary neurons which are susceptible to Tat and PAF-mediated cell killing and have been used in many of previous studies. CGN cells are isolated according to published procedures [Maggirwar, S. B., et al. 1999. J Neurochem 73:578-86] [Tong, N., et al. 2001. Eur J Neurosci 13:1913-22].
78(4): p. […] 22(6): p. 1102-6].
Primary rat cerebellar granule neurons (CGNs) were exposed to a neurotoxic concentration of HIV-1 Tat, in the presence or absence of an A2AR antagonist (ZM241385). […] It is important to note that CGNs express adenosine A2A receptors [Vacas, J., et al. 2003. Brain Res 992:272-280].
Primary cultures of rat cerebellar granule neurons (CGNs) were exposed to HIV-Tat ([…]) alone or together with increasing doses of the A2AR antagonist ATL-455 or A2A agonists ATL313 or CGS21680. Cells are treated with the test compounds for defined time intervals of up to 48 hours (1, 4, 8, 24, and 48 hours).

`N#CC(C#N)=NNc1ccc(OC(F)(F)F)cc1` [FCCP, Trifluorocarbonylcyanide Phenylhydrazone]: in data set [1], the “effect on mitochondrial TMRE/M signal” value is “substantially diminished; also recorded: loss of TMRM signal” and the “effect on ΔΨm” value was “normalizes ΔΨm back to baseline levels but not below”. Moreover, in data set [2], the “Beading Prediction” value is recorded as “Prevented”, the “LTP Prediction” value is “Achieved” and the Δψm result is listed as “Normalized”. Besides, in data set [2] (FCCP, no neurotoxin (vehicle)), the Δψm entry was “Slightly”.

For `CNC(=O)[C@H]1O[C@@H](n2cnc3c(NCc4cccc(I)c4)ncnc32)[C@H](O)[C@@H]1O` [IB-MECA], the “effect on Tat-induced NO secretion” value in data set [3] was “complete abrogation”. Moreover, in data set [4] (co-treatment with Tat), the “inhibition of Tat-induced iNOS expression” value is on record as “roughly 50%”.

Turning to `O=C(Cc1ccccc1)Nc1nc2ccc(Cl)cc2c2nc(-c3ccco3)nn12` [MRS 1220], in data set [4], the “prevention of the anti-inflammatory effects of CGS21680 or IB-MECA, respectively” value is “prevent”.

In the case of `C[C@H](Cc1ccccc1)Nc1ncnc2c1ncn2[C@@H]1O[C@H](CO)[C@@H](O)[C@H]1O` [R-PIA], the “effect on Tat-induced NO secretion” value in data set [3] is on record as “no effect”. In addition, the “effect on Tat-induced iNOS expression” value in data set [4] (1 μM) was “no effect”.

For `CCCCNC(=O)NS(=O)(=O)c1ccc(C)cc1` [Tolbutamide], the “toxicity, alone” value in data set [5] (tolbutamide 100 μM alone) is “no toxicity”. Also, in data set [5] (tolbutamide 100 μM, Tat 0.1 or 2.5 μg/ml, 24 hours), the “effect on Tat's induction of apoptotic cell death” value is “attenuating apoptotic cell death; also recorded: partially attenuated”. Besides, in data set [1] (tolbutamide 100 μM alone), the “effect on ΔΨm, alone” value is recorded as “no significant effect”. For the same compound, the “effect on Tat mediated rise in ΔΨm” value in data set [1] (tolbutamide 100 μM, Tat 0.1 or 2.5 μg/ml, 1 and 24 hours) is listed as “blocked; also recorded: completely prevented”.

As for `Nc1nc(NCCc2ccc(O)cc2)nc2nc(-c3ccco3)nn12` [ZM241385, 4(2-[7-Amino-2-(2-furyl)[1,2,4]triazolo[2,3-a][1,3,5]triazin-5-ylamino]ethyl)phenol], the “effect on Tat-induced neuronal apoptosis” value in data set [6] is listed as “protect neurons; also recorded: protects neurons against Tat-induced apoptosis”. Further, in data set [4], the “prevention of the anti-inflammatory effects of CGS21680 or IB-MECA, respectively” value is “prevent”.

As for TNF-α, the “effect on ΔΨm” value in data set [1] (neurotoxin alone) was “dose dependent increases”.
